In patent publication US8377944B2, “Thienopyrimidine derivatives” (ASKA Pharmaceutical Co., Ltd., priority 2005, dated 2013):

Key:
[1] = target: T1, human recombinant PDE9 protein (Homo sapiens, UniProt O76083); assay: Measurement of PDE9-inhibiting activity; type: biochemical; conditions: human recombinant PDE9, [3H]-cGMP substrate; read-out: Inhibitory Activity (IC50 value) PDE 9
T1 construct: made in house; host or cells: COS-1 cells, transient transfection of pcDNA 3.1(+); supernatant of the cell homogenate
T1 sequence (O76083 whole entry): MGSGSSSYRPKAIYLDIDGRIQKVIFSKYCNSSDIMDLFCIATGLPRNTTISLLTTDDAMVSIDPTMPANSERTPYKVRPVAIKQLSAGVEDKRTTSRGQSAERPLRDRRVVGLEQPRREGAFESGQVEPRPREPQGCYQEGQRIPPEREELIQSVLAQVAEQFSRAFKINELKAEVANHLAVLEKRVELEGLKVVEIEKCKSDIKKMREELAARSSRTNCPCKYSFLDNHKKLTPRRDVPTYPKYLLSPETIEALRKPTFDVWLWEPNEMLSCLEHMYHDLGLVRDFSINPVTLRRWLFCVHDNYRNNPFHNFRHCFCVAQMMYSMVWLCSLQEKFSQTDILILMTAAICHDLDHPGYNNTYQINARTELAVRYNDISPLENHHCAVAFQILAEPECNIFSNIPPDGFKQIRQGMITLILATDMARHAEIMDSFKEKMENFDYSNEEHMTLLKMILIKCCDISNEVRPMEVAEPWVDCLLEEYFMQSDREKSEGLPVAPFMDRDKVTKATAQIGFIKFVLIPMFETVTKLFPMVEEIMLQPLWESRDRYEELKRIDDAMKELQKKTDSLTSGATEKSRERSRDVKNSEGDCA
From the text: (1) Measurement of PDE9-Inhibiting Activity:
1) Preparation of Human Recombinant PDE9 Protein
Based on the base sequence of hsPDE9A1 registered with GenBank database (accession No.: AF048837), hsPDE9A1 fragment was amplified by polymerase chain reaction under the following conditions, using the following sequence (Amasham Pharmacia Biotech) as the primer and Human Prostate […] cDNA library (CLONTECH) as the template DNA, with Pfu Turbo DNA polymerase ([…]):
hPDE9-5A primer: […] [SEQ ID NO: 1]
hPDE9-3A primer: […] [SEQ ID NO: 2]
PCR condition: [95° C., 5 min]×1 cycle, [(95° C., 1 min), (58° C., 2 min), (72° C., 3 min)]×25 cycle, [72° C., 10 min]×1 cycle
Thus obtained hsPDE9A1 fragment was given a restricted enzymatic treatment with NheI and NotI, and thereafter inserted into pcDNA 3.1(+) expression vector (Invitrogen) to let it serve as a human PDE9 expression vector.
Human PDE9 expression vector-transformed Escherichia coli was mass incubated to produce a large amount of PDE9 expression vector, which was transiently transfected into COS-1 cells, with LIPOFECTAMINE 2000 Reagent (GIBCO). […]
To 150 μL of buffer B (70 mmol/L Tris-HCl, pH7.5; 16.7 mmol/L MgCl2, 33.3 nmol/L [^3H]-cGMP) solution containing [^3H]-cGMP (specific activity=244.2 GBq/mmol) at a concentration of 33.3 nmol/L, 50 μL of a solution of the compound to be evaluated (formed by dissolving the compound in DMSO and diluting it with distilled water to DMSO concentration of 5%) and 50 μL of the PDE9 protein solution as prepared in the above, as diluted with buffer C (40 mmol/L Tris-HCl, pH7.5, 15 mmol/L benzamidine, 15 mmol/L 2-mercaptoethanol, 1 μg/mL Pepstatin A, 1 μg/mL Leupeptin) by 1,500×, were added under cooling with ice. […] Thereafter [^3H]-guanosine was eluted with 3 mL of 3 mol/L aqueous ammonia and its radiation activity was measured with liquid scintillation counter.
PDE9 inhibition of the tested compound can be calculated by the following formula: […]
From the inhibition ratios at various concentration levels of each tested compound, its IC50 value against PDE9 was determined.

[2] = target: T2, human recombinant PDE5 protein (Homo sapiens, UniProt O76074); assay: Measurement of PDE5-inhibiting activity; type: biochemical; conditions: human recombinant PDE5, [3H]-cGMP substrate; read-out: Inhibitory Activity (IC50 value) PDE 5
T2 construct: made in house; host or cells: COS-1 cells, transient transfection of pcDNA 3.1(+); supernatant of the cell homogenate
From the text: (2) Measurement of PDE5-Inhibiting Activity:
1) Preparation of Human Recombinant PDE5 Protein
Based on the base sequence of hsPDE5A1 registered with GenBank database (accession No.: NM_001083), hsPDE5A1 fragment was amplified by polymerase chain reaction under the following conditions, using the following sequence (SIGMA GENOSYS) as the primer and Human Prostate […] cDNA library (CLONTECH) as the template DNA, with KDD plus DNA polymerase (TOYOBO): […]
hPDE5-5′E primer: […] [SEQ ID NO: 3] […]
hPDE5-3′ primer: […] [SEQ ID NO: 4]
PCR condition: [94° C., 2 min]×1 cycle, [(94° C., 30 sec), (65° C., 30 sec), (68° C., 3 min)]×25 cycle, [68° C., 6 min]×1 cycle Thus obtained hsPDE5A1 fragment was given a restricted enzymatic treatment with XBaI and EcoRI, and thereafter inserted into pcDNA 3.1(+) expression vector (Invitrogen) to let it serve as a human PDE5 expression vector.
Human PDE5 expression vector-transformed Escherichia coli was mass incubated to produce a large amount of PDE5 expression vector, which was transiently transfected into COS-1 cells, with LIPOFECTAMINE 2000 Reagent (GIBCO). The cells were homogenized in ice-cooled buffer A and centrifuged at 4° C., 14,000×g for 10 minutes. The supernatant was isolated to provide human recombinant PDE5 protein solution.
2) Measurement of PDE5-Inhibiting Activity
By a method similar to the measurement of PDE9-inhibiting activity, PDE5-inhibiting activity of the test compounds was measured, their inhibition was calculated and IC50 value to PDE5 of each of the compounds was determined. The results are shown in the following Table A, concurrently with the compounds' IC50 values against PDE9.

Q: Which IC50 [1] does the source give for Cc1c(C(=O)O)sc2nc(Cc3ccc(Cl)s3)[nH]c(=O)c12 [Example 3, 2-(5-Chlorothiophen-2-ylmethyl)-5-methyl-4-oxo-3,4-dihydrothieno[2,3-d]pyrimidine-6-carboxylic acid] here?
A: Its IC50 is 0.034 µM.

Q: And the IC50 [2]?
A: The IC50 was 6.9 µM.
